Molecular target: T1, CXCR3 (Homo sapiens, UniProt P49682)
T1 construct: host or cells: CHO-K1 (cAMP Hunter CHOK1 CXCR3 Gi cell line)
T1 sequence (P49682 1-368): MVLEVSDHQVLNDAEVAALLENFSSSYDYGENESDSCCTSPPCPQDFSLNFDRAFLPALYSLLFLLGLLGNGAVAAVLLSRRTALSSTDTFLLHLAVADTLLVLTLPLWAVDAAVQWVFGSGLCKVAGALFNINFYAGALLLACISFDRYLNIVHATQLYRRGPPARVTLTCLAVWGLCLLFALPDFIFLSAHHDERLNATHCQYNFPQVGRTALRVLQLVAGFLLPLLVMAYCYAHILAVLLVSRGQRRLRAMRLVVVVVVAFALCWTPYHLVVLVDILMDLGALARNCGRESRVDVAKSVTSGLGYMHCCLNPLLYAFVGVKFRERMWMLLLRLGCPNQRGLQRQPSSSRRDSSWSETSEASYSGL
Experiment: CXCR3 cAMP agonist assay (cAMP Hunter CHOK1 CXCR3 Gi cell line, forskolin-stimulated, HitHunter cAMP detection)
Assay type: cell-based
Conditions: cAMP Hunter CHOK1 CXCR3 Gi cells, 20 μM forskolin, 30 minutes; read-out: Activity (CXCR3 cAMP agonist assay compound EC50)
Method in brief: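 Agonist activity was measured as suppression of forskolin (20 μM)-induced cAMP, read by luminescent enzyme-fragment complementation with a cAMP standard curve and CXCL11 defining full efficacy. Assay used 50,000 CXCR3 Gi CHOK1 cells/well in pH 7.4 HEPES-buffered HBSS with 0.1% BSA, compound 0-10 μM over 12 points, 30 min incubation.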

Row | EC50 | SMILES
1 | < 50 nM | Cc1cc(NC(=O)[C@H](CCCCN)NC(=O)[C@@H]2Cc3ccccc3CN2C(=O)CCC(=O)c2cccc(C(F)(F)F)c2)ccc1Cl [Compound 7-8]
2 | > 500 nM | COc1ccc(C(=O)CCC(=O)N2Cc3ccccc3C[C@H]2C(=O)N[C@@H](CCCCN)C(=O)Nc2ccc(Cl)c(C)c2)cc1F [Compound 7-9]
3 | < 50 nM | Cc1cc(NC(=O)[C@H](CCNCC(C)C)NC(=O)[C@@H]2Cc3ccccc3CN2C(=O)CCC(=O)c2ccccc2)ccc1Cl [Compound 8-1, (S)—N—((S)-1-((4-chloro-3-methylphenyl)amino)-4-(isobutylamino)-1-oxobutan-2-yl)-2-(4-oxo-4-phenylbutanoyl)-1,2,3,4-tetrahydroisoquinoline-3-carboxamide]
4 | < 50 nM | CCNCC[C@H](NC(=O)[C@@H]1Cc2ccccc2CN1C(=O)CCC(=O)c1ccccc1)C(=O)Nc1ccc(Cl)c(C)c1 [Compound 8-4]
5 | < 50 nM | Cc1cc(NC(=O)[C@H](CCCNC(C)C)NC(=O)[C@@H]2Cc3ccccc3CN2C(=O)CCC(=O)c2ccccc2)ccc1Cl [Compound 8-5]
6 | 50 to 250 nM | Cc1cc(NC(=O)[C@H](CCNCC(F)(F)F)NC(=O)[C@@H]2Cc3ccccc3CN2C(=O)CCC(=O)c2ccccc2)ccc1Cl [Compound 8-6]
7 | < 50 nM | CC(C)NCC[C@H](NC(=O)[C@@H]1Cc2ccccc2CN1C(=O)CCC(=O)c1ccccc1)C(=O)Nc1ccc(Cl)c(Cl)c1F [Compound 8-7]
8 | < 50 nM | Cc1cc(NC(=O)[C@H](CNC(=N)N)NC(=O)[C@@H]2Cc3ccccc3CN2C(=O)CCC(=O)c2ccccc2)ccc1Cl [Compound 9-1, (S)—N—((S)-1-((4-chloro-3-methylphenyl)amino)-3-guanidino-1-oxopropan-2-yl)-2-(4-oxo-4-phenylbutanoyl)-1,2,3,4-tetrahydroisoquinoline-3-carboxamide]
9 | < 50 nM | Cc1cc(NC(=O)[C@H](CCN)NC(=O)[C@@H]2Cc3ccccc3CN2C(=O)CCC(=O)N2CCCCC2)ccc1Cl [Compound 10-1, (S)—N—((S)-4-amino-1-((4-chloro-3-methylphenyl)amino)-1-oxobutan-2-yl)-2-(4-oxo-4-(piperidin-1-yl)butanoyl)-1,2,3,4-tetrahydroisoquinoline-3-carboxamide]
10 | 50 to 250 nM | Cc1cc(NC(=O)[C@H](CCN)NC(=O)[C@@H]2Cc3ccccc3CN2C(=O)CCC(=O)N2CCOCC2)ccc1Cl [Compound 10-2]
11 | < 50 nM | Cc1cc(NC(=O)[C@H](CCN)NC(=O)[C@@H]2Cc3ccccc3CN2C(=O)CCC(=O)N2CCN(C)CC2)ccc1Cl [Compound 10-3]
12 | < 50 nM | CN1CCN(C(=O)CCC(=O)N2Cc3ccccc3C[C@H]2C(=O)N[C@@H](CCN)C(=O)Nc2ccc(Cl)c(Cl)c2F)CC1 [Compound 10-4]
13 | < 50 nM | NCC[C@H](NC(=O)[C@@H]1Cc2ccccc2CN1C(=O)CCC(=O)N1CCC2CCCCC2C1)C(=O)Nc1ccc2c(c1)CCC2 (stereo partly drawn) [Compound 10-5]
14 | < 50 nM | NCC[C@H](NC(=O)[C@@H]1Cc2ccccc2CN1C(=O)CCC(=O)N1CCCC12CCC2)C(=O)Nc1ccc2c(c1)CCC2 [Compound 10-6]
15 | < 50 nM | CC1(C)CCCN(C(=O)CCC(=O)N2Cc3ccccc3C[C@H]2C(=O)N[C@@H](CCN)C(=O)Nc2ccc3c(c2)CCC3)C1 [Compound 10-7]
16 | < 50 nM | Cc1cc(NC(=O)[C@H](CCN)NC(=O)[C@@H]2Cc3ccccc3CN2C(=O)CCC(=O)N2CCCC23CCC3)cc(C)c1Cl [Compound 10-10]
17 | < 50 nM | Cc1cc(NC(=O)[C@H](CCN)NC(=O)[C@@H]2Cc3ccccc3CN2C(=O)CCC(=O)N2CCCC3(CCC3)C2)cc(C)c1Cl [Compound 10-11]
18 | < 50 nM | Cc1cc(NC(=O)[C@H](CCN)NC(=O)[C@@H]2Cc3ccccc3CN2C(=O)CCC(=O)N2CCC(C)(C)CC2)cc(C)c1Cl [Compound 10-12]
19 | > 500 nM | Cc1cccc(NC(=O)C2(NC(=O)[C@@H]3Cc4ccccc4CN3C(=O)CCC(=O)c3ccccc3)CCNCC2)c1Cl [Compound 11-1, (S)—N-(4-((2-chloro-3-methylphenyl)carbamoyl)piperidin-4-yl)-2-(4-oxo-4-phenylbutanoyl)-1,2,3,4-tetrahydroisoquinoline-3-carboxamide]
20 | 250 to 500 nM | Cc1c(NC(=O)C2(NC(=O)[C@@H]3Cc4ccccc4CN3C(=O)CCC(=O)c3ccccc3)CCNCC2)ccc(Cl)c1Cl [Compound 11-2]
21 | < 50 nM | Cc1cc(NC(=O)C2(NC(=O)[C@@H]3Cc4ccccc4CN3C(=O)CCC(=O)c3ccccc3)CCNCC2)c(F)cc1Cl [Compound 11-3]
22 | 50 to 250 nM | Cc1c(Cl)ccc(NC(=O)C2(NC(=O)[C@@H]3Cc4ccccc4CN3C(=O)CCC(=O)c3ccccc3)CCNCC2)c1C [Compound 11-4]
23 | > 500 nM | O=C(CCC(=O)N1Cc2ccccc2C[C@H]1C(=O)NC1(C(=O)Nc2cccc(Cl)c2Cl)CCNCC1)c1ccccc1 [Compound 11-5]
24 | < 50 nM | Cc1cc(NC(=O)C2(NC(=O)[C@@H]3Cc4ccccc4CN3C(=O)CCC(=O)c3ccccc3)CCNCC2)c(Cl)cc1Cl [Compound 11-6]

Row | EC50 | SMILES
25 | 50 to 250 nM | Cc1cc(NC(=O)[C@H](CCN)NC(=O)[C@@H]2Cc3ccccc3CN2C(=O)CCC(=O)N2C[C@@H](C)O[C@@H](C)C2)ccc1Cl [Compound 12-1, (S)—N—((S)-4-amino-1-((4-chloro-3-methylphenyl)amino)-1-oxobutan-2-yl)-2-(4-((2R,6S)-2,6-dimethylmorpholino)-4-oxobutanoyl)-1,2,3,4-tetrahydroisoquinoline-3-carboxamide]
26 | < 50 nM | Cc1cc(NC(=O)[C@H](CCN)NC(=O)[C@@H]2Cc3ccccc3CN2C(=O)CCC(=O)NCCC(C)(C)C)ccc1Cl [Compound 12-2]
27 | 50 to 250 nM | Cc1cc(NC(=O)[C@H](CCN)NC(=O)[C@@H]2Cc3ccccc3CN2C(=O)CCC(=O)NCC2CCCCC2)ccc1Cl [Compound 12-3]
28 | < 50 nM | Cc1cc(NC(=O)[C@H](CCN)NC(=O)[C@@H]2Cc3ccccc3CN2C(=O)CCC(=O)N2CCC(F)(F)CC2)ccc1Cl [Compound 12-4]
29 | < 50 nM | Cc1cc(NC(=O)[C@H](CCN)NC(=O)[C@@H]2Cc3ccccc3CN2C(=O)CCC(=O)N2CCCC2)ccc1Cl [Compound 12-5]
30 | 50 to 250 nM | Cc1cc(NC(=O)[C@H](CCN)NC(=O)[C@@H]2Cc3ccccc3CN2C(=O)CCC(=O)N2CCC(O)CC2)ccc1Cl [Compound 12-6]
31 | < 50 nM | Cc1cc(NC(=O)[C@H](CCN)NC(=O)[C@@H]2Cc3ccccc3CN2C(=O)CCC(=O)N2CC3(CCCCC3)C2)ccc1Cl [Compound 12-7]
32 | 50 to 250 nM | Cc1cc(NC(=O)[C@H](CCN)NC(=O)[C@@H]2Cc3ccccc3CN2C(=O)CCC(=O)N2CCC(F)(F)C2)ccc1Cl [Compound 12-8]
33 | > 500 nM | Cc1cc(NC(=O)[C@H](CCN)NC(=O)[C@@H]2Cc3ccccc3CN2C(=O)CCC(=O)N2CC3(COC3)C2)ccc1Cl [Compound 12-9]
34 | 50 to 250 nM | Cc1cc(NC(=O)[C@H](CCN)NC(=O)[C@@H]2Cc3ccccc3CN2C(=O)CCC(=O)NCC2CCCC2)ccc1Cl [Compound 12-10]
35 | < 50 nM | Cc1cc(NC(=O)[C@H](CCN)NC(=O)[C@@H]2Cc3ccccc3CN2C(=O)CCC(=O)N2CC(C)(c3ccccc3)C2)ccc1Cl [Compound 12-11]
36 | > 500 nM | Cc1cc(NC(=O)[C@H](CCN)NC(=O)[C@@H]2Cc3ccccc3CN2C(=O)CCC(=O)NCC2CCOCC2)ccc1Cl [Compound 12-12]
37 | < 50 nM | Cc1cc(NC(=O)[C@H](CCN)NC(=O)[C@@H]2Cc3ccccc3CN2C(=O)CCC(=O)N2CCCCCC2)ccc1Cl [Compound 12-13]
38 | 50 to 250 nM | CCN(CC)C(=O)CCC(=O)N1Cc2ccccc2C[C@H]1C(=O)N[C@@H](CCN)C(=O)Nc1ccc(Cl)c(C)c1 [Compound 12-14]
39 | 50 to 250 nM | Cc1cc(NC(=O)[C@H](CCN)NC(=O)[C@@H]2Cc3ccccc3CN2C(=O)CCC(=O)N2CCN(S(C)(=O)=O)CC2)ccc1Cl [Compound 12-15]
40 | > 500 nM | Cc1cc(NC(=O)[C@H](CCN)NC(=O)[C@@H]2Cc3ccccc3CN2C(=O)CCC(=O)N(C)Cc2ccccc2)ccc1Cl [Compound 12-16]
41 | 50 to 250 nM | Cc1cc(NC(=O)[C@H](CCN)NC(=O)[C@@H]2Cc3ccccc3CN2C(=O)CCC(=O)N2CCS(=O)(=O)CC2)ccc1Cl [Compound 12-17]
42 | > 500 nM | Cc1cc(NC(=O)[C@H](CCN)NC(=O)[C@@H]2Cc3ccccc3CN2C(=O)CCC(=O)NCc2ccccc2)ccc1Cl [Compound 12-18]
43 | 250 to 500 nM | Cc1cc(NC(=O)[C@H](CCN)NC(=O)[C@@H]2Cc3ccccc3CN2C(=O)CCC(=O)N2CC(F)C2)ccc1Cl [Compound 12-19]
44 | < 50 nM | Cc1cc(NC(=O)[C@H](CCN)NC(=O)[C@@H]2Cc3ccccc3CN2C(=O)CCC(=O)N2CCCOCC2)ccc1Cl [Compound 12-20]
45 | < 50 nM | Cc1cc(NC(=O)[C@@H](CCN)NC(=O)[C@@H]2Cc3ccccc3CN2C(=O)CCC(=O)N2CCCOCC2)ccc1Cl [Compound 12-21]
46 | < 50 nM | Cc1cc(NC(=O)[C@H](CCN)NC(=O)[C@@H]2Cc3ccccc3CN2C(=O)CCC(=O)N2CC(C(C)(C)O)C2)ccc1Cl [Compound 12-22]
47 | < 50 nM | Cc1cc(NC(=O)[C@H](CCN)NC(=O)[C@@H]2Cc3ccccc3CN2C(=O)CCC(=O)N2CCOCC2(C)C)ccc1Cl [Compound 12-23]
48 | 250 to 500 nM | Cc1cc(NC(=O)[C@H](CCN)NC(=O)[C@@H]2Cc3ccccc3CN2C(=O)CCC(=O)N2CC3(CCOCC3)C2)ccc1Cl [Compound 12-24]
